# Laboratory results as given in US20020019332A1, “METHOD OF INDUCING APOPTOSIS IN B-LYMPHOCYTES” (priority 1999, published 2002).
# Key:
# immature B cells = assay: Apoptosis assay (relative DNA content, propidium iodide flow cytometry) in immature B cells; assay type: cell-based, mouse; details: late-stage immature B cells, 18 hours, anti-IgM F(ab′)2 50 μg/ml plus phorbol ester (PMA 10 ng/ml)
# Description: Experiments were performed using an in vitro model system that makes use of an immature population of B cells purified from the spleens of adult mice after sublethal irradiation. Immature B cells obtained from these autoreconstituting mice are phenotypically immature and respond identically to immature B cells purified from either […] bone marrow (Norvell, A. et al. 1995. J. Immunol. 154:4404; Norvell, A. and J. G. Monroe. 1996. J. Immunol. 156:1328). This homogeneous population of immature B cells is devoid of pre-B cells and mature B cells found in neonatal spleen and adult bone marrow, respectively. Further, unlike the immature B cells purified from either bone marrow or neonatal spleen, immature B cells from autoreconstituting mice can be isolated without positive selection on anti-Ig panning plates. Since large numbers of unmanipulated immature B cells can be obtained, autoreconstituting B cells are an ideal system for analyzing biochemical events responsible for tolerogenic signal transduction. The B cells isolated from these mice represent a transitional stage of development in which cells are subject to negative selection. This in vitro system uses apoptosis as an indicator of negative selection.
# Purified populations of either immature B cells obtained from the spleens of day 14 autoreconstituting mice or mature B cells isolated from spleens of normal adult mice were incubated in the absence or presence of 50 μg/ml of rabbit anti-mouse IgM F(ab′)2 fragments (anti-Ig) for 16-18 hours. […]
# The ability of PMA to protect immature B cells from BCR-induced apoptosis was assessed in the presence of the same two inhibitors. […]
# (§1) Purified B cells were cultured under various conditions overnight in either sterile 2 ml click-cap tubes or 96-well plates. […] The cells were stained at 4° C. overnight and analyzed by flow cytometry on a Becton Dickinson FACScan using LYSYS II software. The mean percentages of apoptotic cells and the standard errors for each culture condition were determined and significance was assessed by the Student's t-test.
# [1] = system: PKC-depleted mature B cells; assay: Modified TUNEL analysis of PKC-depleted mature B cells; assay type: cell-based, mouse
# Description: To assess the role of PKC activation in the prevention of antigen-mediated apoptosis, the ability of anti-Ig to induce apoptosis in PKC-depleted mature B cells was determined. […] After overnight treatment, the cells were washed expansively and subjected to an apoptotis analysis in which B cells were recultured with medium alone, anti-Ig, anti-Ig and PMA or anti-Ig and 4αPDD. After 8 hours incubation, the cells were harvested and subjected to a modified TUNEL analysis. […]. After PKC depletion, mature B cells were specifically susceptible to anti-Ig-mediated apoptosis.
# In some cases, the frequency of apoptotic cells was quantitated using a modified TUNEL assay. Briefly, 1×10^6 cells were fixed in 2.5% formaldehyde in 1xPBS. The fixed cells were permeabilized in 0.2 ml 0.1% Triton/0.1% citrate for 2 minutes on ice. After washing, cells were incubated in 50 μl of nick translation reagent, which consists of 5 μl nick translation buffer (500 mM Tris, pH 7.5; 100 mM MgSO4; 1 mM DTT), 0.03 μl of fluorescein-dUTP (1 nmol/μl), 1 µl dTTP (0.7 nmol/μl), 1 μl each of dATP, dCTP, dGTP (1 nmol/μl) and 0.1 μl DNA polymerase (5 U/μl) and incubated for at least 1 hour at 37° C. Cells were then washed and analyzed by flow cytometry.
# PKCβ = target: T1, PKCβ (Mus musculus, UniProt P68404); assay: PKC depletion monitored by Western blot analysis; assay type: cell-based; details: PDBu-treated B cells
# T1 construct: endogenous in cells; host or cells: primary mature splenic B cells of mice
# T1 sequence (P68404 whole entry): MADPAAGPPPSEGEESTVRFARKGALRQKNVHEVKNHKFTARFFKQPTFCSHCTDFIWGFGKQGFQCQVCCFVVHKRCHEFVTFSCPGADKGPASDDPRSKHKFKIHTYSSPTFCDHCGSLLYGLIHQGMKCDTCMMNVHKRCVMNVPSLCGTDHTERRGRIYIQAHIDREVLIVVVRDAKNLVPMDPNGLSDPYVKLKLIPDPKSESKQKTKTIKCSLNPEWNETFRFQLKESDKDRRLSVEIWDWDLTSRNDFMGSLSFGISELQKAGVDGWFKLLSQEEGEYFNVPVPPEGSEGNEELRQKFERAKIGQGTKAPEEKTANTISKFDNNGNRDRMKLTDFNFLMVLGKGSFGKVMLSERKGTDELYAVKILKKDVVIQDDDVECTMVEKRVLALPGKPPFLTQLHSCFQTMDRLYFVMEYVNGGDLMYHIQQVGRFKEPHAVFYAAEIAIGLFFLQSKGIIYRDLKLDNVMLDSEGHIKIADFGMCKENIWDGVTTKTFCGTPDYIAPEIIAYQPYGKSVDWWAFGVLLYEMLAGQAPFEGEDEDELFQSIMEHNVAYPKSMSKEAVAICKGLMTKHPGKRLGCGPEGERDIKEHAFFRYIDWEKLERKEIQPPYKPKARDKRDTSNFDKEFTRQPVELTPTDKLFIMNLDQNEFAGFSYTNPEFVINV
# Description: (§2) Therefore, experiments were performed to determine if PKC-depleted mature B cells were susceptible to BCR-induced apoptosis. […] PKC depletion in PDBu- or mock-treated cultures was monitored by Western blot analysis. […] PKC levels in unstimulated immature and mature cells were quite similar, making it unlikely that differential regulation of PKC activity would occur at the level of expression of the individual isoenzyes.
# (§3) For analysis of postnuclear extracts, 1×10^7 cells were lysed in 50 μl of Triton-X lysis buffer (0.1% Triton-X-100; 100 mM Tris, pH 8.0; 10.8 μg/ml aprotinin; 1.5 μg/ml each of leupeptin, pepstatin A, chymostatin, and antipain; 2 mM phenylmethylsulfonyl fluoride; 1 mM N-ethylmaleimide) on ice for 30 minutes. Lysates were microcentrifuged at 14,000× g at 4° C. for 10 minutes to remove the Triton-X insoluble fraction. Lysates from equivalent cell numbers were fractionated on SDS-PAGE gels and electroblotted onto Immobilon (Millipore, Bedford, Mass.). Blots were incubated overnight in Tris-buffered saline with Tween-TBST (10 mM Tris, pH 8.0; 137 mM NaCl; 0.05% Tween 20) plus 2% bovine serum albumin to block nonspecific binding. Membranes were washed twice with TBST and probed with the appropriate antibody solutions for 90 minutes, then washed 3 times in TBST, followed by secondary incubation with the appropriate horseradish peroxidase-conjugated reagents. Three washes with TBST were conducted before detection with an enhanced chemiluminescence system.
# PKCδ = target: T2, PKCδ (Mus musculus, UniProt P28867); assay: PKC depletion monitored by Western blot analysis; assay type: cell-based; details: PDBu-treated B cells
# T2 construct: endogenous in cells; host or cells: primary mature splenic B cells of mice
# T2 sequence (P28867 whole entry): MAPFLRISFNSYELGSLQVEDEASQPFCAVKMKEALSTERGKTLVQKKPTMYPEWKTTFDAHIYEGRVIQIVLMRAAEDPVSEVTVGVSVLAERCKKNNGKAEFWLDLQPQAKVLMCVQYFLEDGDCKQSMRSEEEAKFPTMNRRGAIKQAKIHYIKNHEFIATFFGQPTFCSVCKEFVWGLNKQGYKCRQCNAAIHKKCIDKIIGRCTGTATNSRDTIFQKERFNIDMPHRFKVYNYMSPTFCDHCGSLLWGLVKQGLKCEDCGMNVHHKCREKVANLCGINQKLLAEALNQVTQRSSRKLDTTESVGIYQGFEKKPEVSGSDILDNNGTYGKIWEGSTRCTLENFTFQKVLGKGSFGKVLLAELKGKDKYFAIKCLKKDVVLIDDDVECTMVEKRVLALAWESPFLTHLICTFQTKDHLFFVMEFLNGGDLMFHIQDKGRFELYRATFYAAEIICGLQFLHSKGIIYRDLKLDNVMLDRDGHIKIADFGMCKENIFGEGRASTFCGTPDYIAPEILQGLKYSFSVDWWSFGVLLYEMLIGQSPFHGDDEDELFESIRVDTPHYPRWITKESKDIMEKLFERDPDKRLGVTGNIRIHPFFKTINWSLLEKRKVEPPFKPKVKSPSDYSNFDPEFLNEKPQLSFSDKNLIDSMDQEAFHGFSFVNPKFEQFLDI
# Description: as §2, §3
# PKCε = target: T3, PKCε (Mus musculus, UniProt P16054); assay: PKC depletion monitored by Western blot analysis; assay type: cell-based; details: PDBu-treated B cells
# T3 construct: endogenous in cells; host or cells: primary mature splenic B cells of mice
# T3 sequence (P16054 1-737): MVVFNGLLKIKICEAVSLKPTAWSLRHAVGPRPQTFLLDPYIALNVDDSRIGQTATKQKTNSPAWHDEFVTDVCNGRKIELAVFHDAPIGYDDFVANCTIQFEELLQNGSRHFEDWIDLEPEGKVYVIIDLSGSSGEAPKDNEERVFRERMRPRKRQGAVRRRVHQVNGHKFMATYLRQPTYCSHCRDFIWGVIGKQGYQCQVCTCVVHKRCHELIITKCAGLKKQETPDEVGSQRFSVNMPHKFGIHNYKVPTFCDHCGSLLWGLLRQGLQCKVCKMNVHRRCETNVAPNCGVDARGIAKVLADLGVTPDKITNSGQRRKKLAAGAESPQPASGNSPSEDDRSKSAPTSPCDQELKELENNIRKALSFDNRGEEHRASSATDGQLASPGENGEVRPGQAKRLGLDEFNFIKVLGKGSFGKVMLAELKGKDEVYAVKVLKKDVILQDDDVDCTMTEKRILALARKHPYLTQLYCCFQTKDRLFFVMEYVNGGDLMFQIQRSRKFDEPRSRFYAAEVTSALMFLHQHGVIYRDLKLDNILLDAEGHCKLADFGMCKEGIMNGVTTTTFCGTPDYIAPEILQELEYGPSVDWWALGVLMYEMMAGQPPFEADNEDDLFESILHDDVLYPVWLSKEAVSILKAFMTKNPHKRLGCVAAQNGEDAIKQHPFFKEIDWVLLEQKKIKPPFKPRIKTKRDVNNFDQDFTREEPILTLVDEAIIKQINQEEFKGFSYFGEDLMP
# Description: as §2, §3
# [2] = system: BCR-induced increase in intracellular calcium; assay: Measurement of intracellular calcium in Fura-2-AM loaded B cells; assay type: cell-based, mouse
# Description: Since PMA was capable of rescuing mature, PKC-depleted B cells from anti-Ig-induced apoptosis, experiments were performed to assess whether PMA was capable of desensitizing the BCR in these cells.
# Purified B cells were washed in HBSS without phenol red and supplemented with 2% FCS. For loading, cells were resuspended in HBSS without phenol red and supplemented with 10% FCS. Fura-2 acetoxymethyl ester was added to a final concentration of 1 μM from a 1 mM stock made in DMSO. Cells were incubated in light tight tubes for 30 minutes at 30° C. with occasional inversion. Cells were then washed twice with HEBSS+2% FCS and resuspended at a concentration of 3.3×10^7/ml in HBSS+10% FCS. Fluorometric analysis of dyed cells was performed using a luminescence spectrometer. Excitation was at 340 nm and 380 nM with emission monitored at 510 nm. B cells were diluted to 2×10^6/ml in HBSS and equilibrated for 2 minutes, at which time a baseline spectrum was read. The cells were stimulated with rabbit anti-mouse IgM F(ab′)2 fragments (50 μg/ml) and the response measured. Cells were then lysed with Triton X-100 and Fmax and Fmin were measured by the chelation of extracellular calcium with the addition of EGTA. Calcium traces were calculated by the Intracellular Biochemistry Application (Perkin-Elmer) using these values.
# mature B cells = assay: Apoptosis assay (propidium iodide flow cytometry) in mature B cells; assay type: cell-based, mouse; details: inhibitor added 15 minutes before stimulation with anti-Ig
# Description: Purified populations of either immature B cells obtained from the spleens of day 14 autoreconstituting mice or mature B cells isolated from spleens of normal adult mice were incubated in the absence or presence of 50 μg/ml of rabbit anti-mouse IgM F(ab′)2 fragments (anti-Ig) for 16-18 hours. […] Similar results were observed using a modified TUNEL technique that detects nicked DNA.
# The role of PKC in preventing BCR-induced apoptosis of immature B cells was also examined using inhibitors of PKC.
# as §1, with “plates. PKC inhibitors were added 15 minutes before the addition of the stimulant. After 14-18 hours in the case of immature B cells or 24 hours in the case of mature B cells, the cells were harvested and washed in PBS containing 2% FCS. Cells were fixed and permeabilized by resuspending in 70% ethanol made in 1xPBS and incubating at −20° C. for at least 2 hours.” for “plates.”
compound,measurement,setting,value
CCCCCCCCCC(=O)O[C@@H]1[C@@H](C)[C@@]2(O)[C@@H](C=C(CO)C[C@@]3(O)C(=O)C(C)=C[C@@H]23)[C@@H]2C(C)(C)[C@]12OC(=O)CCCCCCCCC [4αPDD],protection (rescue) from anti-IgM-induced apoptosis,immature B cells,efficiently rescued cells
CCCCCCCCCC(=O)O[C@@H]1[C@@H](C)[C@@]2(O)[C@@H](C=C(CO)C[C@]3(O)C(=O)C(C)=C[C@@H]23)[C@@H]2C(C)(C)[C@]12OC(=O)CCCCCCCCC [4βPDD],protection (rescue) from anti-IgM-induced apoptosis,immature B cells,did not rescue cells
CCCC(=O)O[C@@H]1[C@@H](C)[C@@]2(O)[C@@H](C=C(CO)C[C@]3(O)C(=O)C(C)=C[C@@H]23)[C@@H]2C(C)(C)[C@]12OC(=O)CCC [PDBu],number of apoptotic cells after anti-Ig,"[1]; mature B cells cultured overnight with 100 ng/ml PDBu, washed, recultured 8 hours with anti-Ig",significant and striking increase in the number of apoptotic cells
same,depletion of PKCβ,PKCβ,efficiently depleted
same,depletion of PKCδ,PKCδ,"also depleted, although not as efficiently"
same,depletion of PKCε,PKCε,"also depleted, although not as efficiently"
CCCCCCCCCCCCCC(=O)O[C@@H]1[C@@H](C)[C@@]2(O)[C@@H](C=C(CO)C[C@]3(O)C(=O)C(C)=C[C@@H]23)[C@@H]2C(C)(C)[C@]12OC(C)=O [PMA],protection (rescue) from anti-IgM-induced apoptosis,immature B cells,significant protection from anti-IgM-induced apoptosis
same,rescue from anti-Ig-induced apoptosis,"[1]; PDBu-treated (PKC-depleted) mature B cells, anti-Ig and PMA, 8 hours",still capable of rescuing the cells from anti-Ig-induced apoptosis
same,effect on BCR-induced calcium flux,[2]; PDBu-treated cells,did not alter the BCR-induced calcium flux
same,effect on BCR-induced increase in intracellular calcium,[2]; mock-treated B cells,efficiently reduced the BCR-induced increase in intracellular calcium
CN(C)C[C@H]1CCn2c(c(C3=C(c4cn(C)c5ccccc45)C(=O)NC3=O)c3ccccc32)C1 [Ro-32-0432],induction of apoptosis,mature B cells,led to induction of apoptosis
CN(C)CCCn1cc(C2=C(c3c[nH]c4ccccc34)C(=O)NC2=O)c2ccccc21 [bisindoylmaleimide I],induction of apoptosis,mature B cells,led to induction of apoptosis
